Consider 15 compounds from patent US20100286145A1, “ISOPHTHALAMIDE DERIVATIVES INHIBITING BETA-SECRETASE ACTIVITY” (CoMentis, Inc., priority 2007, published 2010).

Assay [1] deals with memapsin 2 (Homo sapiens, UniProt P56817). As to the kind of experiment: Inhibition of memapsin 2 beta-secretase activity (fluorogenic substrate FS-2). The conditions noted are these: memapsin 2, pH 4, 37° C., fluorogenic substrate FS-2; read-out: M2Ki. The format is biochemical. In short, it runs like this: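 Memapsin 2 pre-incubated 20 min with compound at pH 4, 37° C, then FS-2 substrate (MCA-SEVNLDAEFK-DNP, APP Swedish cleavage site) added. Rate of fluorescence increase compared with uninhibited controls, fitted to a tight-binding inhibition model.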

The test system of assay [2] is Aβ production in Chinese hamster ovary cells that over-express human APP695 with the London and Swedish mutations. Put plainly: Cellular Aβ IC50 determination (Aβ40 sandwich ELISA). The format is cell-based. The conditions noted are these: Cricetulus griseus. The procedure, abridged: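 CHO cells overexpressing human APP695 with London and Swedish mutations, seeded at 10% confluency, treated with compounds up to about 4 μM final (0.4% DMSO). Secreted Aβ40 measured by sandwich ELISA relative to control and fitted to a 4-parameter IC50 model.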

Setting [3] is: cellular Aβ production, read-out: IC50.

The structures appear in SMILES notation. Where two headings read alike, the source gives them in different places.

memapsin 2, sequence (P56817 46-501): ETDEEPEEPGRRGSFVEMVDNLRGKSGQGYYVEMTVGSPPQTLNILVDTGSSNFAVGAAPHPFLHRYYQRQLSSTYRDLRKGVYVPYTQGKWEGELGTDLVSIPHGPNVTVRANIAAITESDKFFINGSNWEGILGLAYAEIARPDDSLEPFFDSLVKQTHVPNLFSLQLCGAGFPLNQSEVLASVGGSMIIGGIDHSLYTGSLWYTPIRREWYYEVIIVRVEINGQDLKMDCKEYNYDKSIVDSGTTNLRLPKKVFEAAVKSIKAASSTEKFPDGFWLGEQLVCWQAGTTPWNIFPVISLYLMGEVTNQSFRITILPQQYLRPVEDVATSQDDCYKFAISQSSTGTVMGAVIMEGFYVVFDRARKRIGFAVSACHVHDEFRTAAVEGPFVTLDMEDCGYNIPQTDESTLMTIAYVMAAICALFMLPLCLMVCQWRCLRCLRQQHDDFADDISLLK

For the compound `COc1cccc(CNC[C@@H](O)[C@H](Cc2ccccc2)NC(=O)c2cc(C(=O)N(C)Cc3nc(C)cs3)cc(N3CCC(O)C3)c2)c1` (stereo partly drawn) [Compound 241, N1-((2S,3R)-3-hydroxy-4-(3-methoxybenzylamino)-1-phenylbutan-2-yl)-5-(3-hydroxypyrrolidin-1-yl)-N3-methyl-N3-((4-methylthiazol-2-yl)methyl)isophthalamide], the Ki in assay [1] is less than 300 nM. Moreover, the IC50 in assay [2] (setting [3]) lay in the range of 1000 to 5000 nM.
The corresponding values for `Cc1csc(CN(C)C(=O)c2cc(C(=O)N[C@@H](Cc3ccccc3)[C@H](O)CNCc3cncc(C(C)C)c3)cc(N3CCC(O)C3)c2)n1` (stereo partly drawn) [Compound 242, N1-((2S,3R)-3-hydroxy-4-((5-isopropylpyridin-3-yl)methylamino)-1-phenylbutan-2-yl)-5-(3-hydroxypyrrolidin-1-yl)-N3-methyl-N3-((4-methylthiazol-2-yl)methyl)isophthalamide] are less than 300 nM and less than 1000 nM.
Turning to `CC(=O)Oc1cc(CNC[C@@H](O)[C@H](Cc2ccccc2)NC(=O)c2cccc(C(=O)N(C)Cc3nc(C)cs3)c2)cc(C(C)C)c1` [Compound 243, 3-(((2R,3S)-2-hydroxy-3-(3-(methyl((4-methylthiazol-2-yl)methyl)carbamoyl)benzamido)-4-phenylbutylamino)methyl)-5-isopropylphenyl acetate], in assay [1], the Ki was less than 300 nM. Also, in assay [2] (setting [3]), the IC50 was less than 1000 nM.
The corresponding values for `CC(=O)c1cc(C(=O)N[C@@H](Cc2ccccc2)[C@H](O)CNCc2cccc(C(F)(F)F)c2)cc(C(=O)N(C)Cc2nc(C)cs2)c1` [Compound 244, 5-acetyl-N1-((2S,3R)-3-hydroxy-1-phenyl-4-(3-(trifluoromethyl)benzylamino)butan-2-yl)-N3-methyl-N3-((4-methylthiazol-2-yl)methyl)isophthalamide] are less than 300 nM and less than 1000 nM.
The corresponding values for `Cc1csc(CN(C)C(=O)c2cc(C(=O)N[C@@H](Cc3ccccc3)[C@H](O)CNCc3cncc(C(C)(F)F)c3)cc(C(F)F)c2)n1` [Compound 245, N1-((2S,3R)-4-((5-(1,1-difluoroethyl)pyridin-3-yl)methylamino)-3-hydroxy-1-phenylbutan-2-yl)-5-(difluoromethyl)-N3-methyl-N3-((4-methylthiazol-2-yl)methyl)isophthalamide] are less than 300 nM and less than 1000 nM.
For `Cc1csc(CN(C)C(=O)c2cccc(C(=O)N[C@@H](Cc3ccccc3)[C@H](O)CNCc3cc(C#N)cc(C(C)C)c3)c2)n1` [Compound 248, N1-((2S,3R)-4-(3-cyano-5-isopropylbenzylamino)-3-hydroxy-1-phenylbutan-2-yl)-N3-methyl-N3-((4-methylthiazol-2-yl)methyl)isophthalamide], the Ki in assay [1] was less than 300 nM. Further, the IC50 in assay [2] (setting [3]) was less than 1000 nM.
Consider `Cc1csc(CN(C)C(=O)c2ccc(C)c(C(=O)N[C@@H](Cc3ccccc3)[C@H](O)CNCc3cncc(C(C)C)c3)c2)n1` [Compound 249, N3-((2S,3R)-3-hydroxy-4-((5-isopropylpyridin-3-yl)methylamino)-1-phenylbutan-2-yl)-N1,4-dimethyl-N1-((4-methylthiazol-2-yl)methyl)isophthalamide], for which, in assay [1], the Ki was more than 501 nM. In assay [2] (setting [3]), the IC50 is more than 5000 nM.
For the compound `Cc1csc(CN(C)C(=O)c2cc(C(=O)N[C@@H](Cc3ccccc3)[C@H](O)CNCc3cncc(C(C)(C)F)c3)cc(-n3cccc3)c2)n1` [Compound 250, N1-((2S,3R)-4-((5-(2-fluoropropan-2-yl)pyridin-3-yl)methylamino)-3-hydroxy-1-phenylbutan-2-yl)-N3-methyl-N3-((4-methylthiazol-2-yl)methyl)-5-(1H-pyrrol-1-yl)isophthalamide], the Ki in assay [1] was less than 300 nM. Also, in assay [2] (setting [3]), the IC50 is less than 1000 nM.
In the case of `CNS(=O)(=O)c1cc(CNC[C@@H](O)[C@H](Cc2ccccc2)NC(=O)c2cccc(C(=O)N(C)Cc3nc(C)cs3)c2)cc(C(C)C)c1` [Compound 251, N1-((2S,3R)-3-hydroxy-4-(3-isopropyl-5-(N-methylsulfamoyl)benzylamino)-1-phenylbutan-2-yl)-N3-methyl-N3-((4-methylthiazol-2-yl)methyl)isophthalamide], in assay [1], the Ki is less than 300 nM. Besides, in assay [2] (setting [3]), the IC50 is less than 1000 nM.
Turning to `Cc1csc(CN(C)C(=O)c2cc(C(=O)N[C@@H](Cc3ccccc3)[C@H](O)CNCc3cncc(C(C)C)c3)cc(-c3ccco3)c2)n1` [Compound 252, 5-(furan-2-yl)-N1-((2S,3R)-3-hydroxy-4-((5-isopropylpyridin-3-yl)methylamino)-1-phenylbutan-2-yl)-N3-methyl-N3-((4-methylthiazol-2-yl)methyl)isophthalamide], the Ki in assay [1] is less than 300 nM. Further, in assay [2] (setting [3]), the IC50 is less than 1000 nM.
The corresponding values for `Cc1csc(CN(C)C(=O)c2cc(C(=O)N[C@@H](Cc3ccccc3)[C@H](O)CNCc3cncc(C(C)(F)F)c3)cc(N(C)C)c2)n1` [Compound 253, N1-((2S,3R)-4-((5-(1,1-difluoroethyl)pyridin-3-yl)methylamino)-3-hydroxy-1-phenylbutan-2-yl)-5-(dimethylamino)-N3-methyl-N3-((4-methylthiazol-2-yl)methyl)isophthalamide] are less than 300 nM and less than 1000 nM.
The corresponding values for `Cc1csc(CN(C)C(=O)c2cc(C(=O)N[C@@H](Cc3ccccc3)[C@H](O)CNCc3cccc(C(F)(F)F)c3)cc(N(C)C)c2)n1` [Compound 254, 5-(dimethylamino)-N1-((2S,3R)-3-hydroxy-1-phenyl-4-(3-(trifluoromethyl)benzylamino)butan-2-yl)-N3-methyl-N3-((4-methylthiazol-2-yl)methyl)isophthalamide] are less than 300 nM and less than 1000 nM.
`COP(=O)(OC)Oc1cc(CNC[C@@H](O)[C@H](Cc2ccccc2)NC(=O)c2cccc(C(=O)N(C)Cc3nc(C)cs3)c2)cc(C(C)C)c1` [Compound 255, 3-(((2R,3S)-2-hydroxy-3-(3-(methyl((4-methylthiazol-2-yl)methyl)carbamoyl)benzamido)-4-phenylbutylamino)methyl)-5-isopropylphenyl dimethyl phosphate]: the Ki in assay [1] is less than 300 nM. In addition, the IC50 in assay [2] is less than 1000 nM.
On to `Cc1nnc(CN(C)C(=O)c2cccc(C(=O)N[C@@H](Cc3ccccc3)[C@H](O)CNCc3cncc(C(C)C)c3)c2)o1` [Compound 256, N1-((2S,3R)-3-hydroxy-4-((5-isopropylpyridin-3-yl)methylamino)-1-phenylbutan-2-yl)-N3-methyl-N3-((5-methyl-1,3,4-oxadiazol-2-yl)methyl)isophthalamide], for which the Ki in assay [1] was more than 501 nM. In addition, the IC50 in assay [2] (setting [3]) fell in the range of 1000 to 5000 nM.
On to `Cc1csc(CN(C)C(=O)c2cc(C(=O)N[C@@H](Cc3ccccc3)[C@H](O)CNCc3cncc(C(C)C)c3)cc(-c3cccn3C)c2)n1` [Compound 257, N1-((2S,3R)-3-hydroxy-4-((5-isopropylpyridin-3-yl)methylamino)-1-phenylbutan-2-yl)-N3-methyl-5-(1-methyl-1H-pyrrol-2-yl)-N3-((4-methylthiazol-2-yl)methyl)isophthalamide], for which, in assay [1], the Ki is less than 300 nM. In addition, in assay [2] (setting [3]), the IC50 is less than 1000 nM.
